Data published in patent US7011826B1, “Control of acidosis” (priority 1999, dated 2006).

Assays:
[1] = tested on: Clostridium-like isolates; assay: Virginiamycin sensitivity test, VM added 3 and 6 h after inoculation; type: cell-based, Clostridium-like vitulinus
Method: (§1) Two isolates of S. bovis from cattle and sheep (orange pigmented and white), five Clostridium-like vitulinus and three isolates of S. ruminantium were incubated in a branch of basal medium 10 with glucose (0.5%) and virginiamycin (VM) at a concentrations of 0, 2, 4, 6 and 8 μg/ml. The virginiamycin solution (100 μg VM/ml) was prepared using Eskalin Wettable Powder (WP), 400 g/kg VM (Pfizer Animal Health, NSW, Australia). The WP was dissolved in distilled water (previously boiled and bubbled with nitrogen until cooled) and filter-sterilised whilst being gassed with nitrogen. This solution was used immediately after preparation. […] The broth-media was inoculated by 0.2 ml of the different fresh viable cultures and 0.1–0.4 ml of VM solution was added to each tube to provide the required dose. A sensitivity test was also performed when VM was added 3 and 6 h after inoculation, using the same concentrations of VM. Tests for sensitivity to VM were conducted using […] of anaerobic incubation at 39° C.

dogs [2] = assay: Faecal characteristics of dog fed dry dog food with virginiamycin; type: in vivo; settings: one dog, virginiamycin 0.5 mg/kg body weight for 7 days
Method: Two dogs were fed a commercial dry dog food for 4 weeks before and then during the experimental period. Virginiamycin (Eskalin 20) was added to the diet of one dog for a period of 7 days prior to faecal sampling to provide 0.5 mg/kg body weight. Samples of faeces were taken for the analysis of pH and lactic acid concentrations at the same time as those taken for isolation of lactic acid producing bacteria.

[3] = tested on: Clostridium-like vitulinus (LV R4); assay: Virginiamycin sensitivity test (broth growth); type: cell-based; settings: Basal Medium 10 with glucose (0.5%)
Method: as §1

[4] = tested on: Clostridium-like vitulinus (LV R3); assay: Virginiamycin sensitivity test (broth growth); type: cell-based; settings: Basal Medium 10 with glucose (0.5%)
Method: as §1

[5] = tested on: Clostridium-like vitulinus (LV R2); assay: Virginiamycin sensitivity test (broth growth); type: cell-based; settings: Basal Medium 10 with glucose (0.5%)
Method: as §1

[6] = tested on: S. ruminantium (SR R1, SR R2 and SR R3); assay: Virginiamycin sensitivity test (broth growth); type: cell-based; settings: Basal Medium 10 with glucose (0.5%)
Method: as §1

[7] = tested on: Clostridium-like vitulinus (LV R5); assay: Virginiamycin sensitivity test (broth growth); type: cell-based; settings: Basal Medium 10 with glucose (0.5%)
Method: as §1

[8] = tested on: Clostridium-like vitulinus (LV R1); assay: Virginiamycin sensitivity test (broth growth); type: cell-based; settings: Basal Medium 10 with glucose (0.5%)
Method: as §1

dogs [9] = assay: Virginiamycin dose trial in dogs fed tinned dog food with added raftilose (faecal measurements); type: in vivo; set-up: faecal Dry matter / faecal Total VFA: unit not given here; settings: for faecal pH: raftilose diet; for faecal Consistency score: 5 = firm, normal faeces and 1 = diarrhoea
Method: The main objective of this trial was to investigate various doses of virginiamycin in terms of its effect on faecal consistency and hind gut fermentation.
Design: There were 4 treatment groups consisting of unmedicated control, and virginiamycin at 3 levels: 0.25, 0.5 and 1 mg/kg body weight. Dogs were acclimatised to a dict based on the tinned ‘No Frills’ dog food for approximately 2 weeks prior to a seven-day treatment period in which fructo-oligosaccharide raftilose was added to the diet at a rate of 3.5 g/kg metabolic body weight. There were five dogs per treatment.
Measurements were made of faecal pH, dry matter, consistency and chemical assays were conducted to measure VFA, D-lactic acid and L-lactic acid.

[10] = VM 0.25, 0.5 and 1 mg/kg body weight

Substance: virginiamycin
- MIC compared with VM added immediately after inoculation ([1]; cultures growing 3 h before addition of VM): higher MIC
- highest VM level to which isolates were resistant ([1]; cultures grown 6 h before addition of VM, all Clostridium-like isolates): 8 µg/mL
- D(−)Lactate in faeces (dogs [2]): 0.45 mmol/L
- L(+)Lactate in faeces (dogs [2]): 0.34 mmol/L
- faecal pH (dogs [2]): 5.34
- VM level the isolate resisted up to [3]: 6 µg/mL
- VM level the isolate resisted up to [4]: 4 µg/mL
- VM level the isolate resisted up to [5]: 4 µg/mL
- highest VM level to which isolates were resistant [6]: 8 µg/mL
- MIC level [7]: 2 µg/mL
- MIC level [8]: 2 µg/mL
- faecal D-lactic acid concentration (dogs [9]; VM 0.25 mg/kg body weight): 0.2
- faecal Dry matter (dogs [9]; VM 0.25 mg/kg body weight): 22.0
- faecal L-lactic acid concentration (dogs [9]; VM 0.25 mg/kg body weight): 2.2
- faecal Total VFA (dogs [9]; VM 0.25 mg/kg body weight): 80.5
- faecal pH (dogs [9]; VM 0.25 mg/kg body weight): 5.2
- faecal Consistency score (dogs [9]; VM 0.25 mg/kg): 3.6
- faecal D-lactic acid concentration (dogs [9]; VM 0.5 mg/kg body weight): 0.4
- faecal Dry matter (dogs [9]; VM 0.5 mg/kg body weight): 22.5
- faecal L-lactic acid concentration (dogs [9]; VM 0.5 mg/kg body weight): 13.8
- faecal Total VFA (dogs [9]; VM 0.5 mg/kg body weight): 93.7
- faecal pH (dogs [9]; VM 0.5 mg/kg body weight): 4.9
- faecal Consistency score (dogs [9]; VM 0.5 mg/kg): 3.7
- faecal D-lactic acid concentration (dogs [9]; VM 1.0 mg/kg body weight): 0.3
- faecal Dry matter (dogs [9]; VM 1.0 mg/kg body weight): 24.2
- faecal L-lactic acid concentration (dogs [9]; VM 1.0 mg/kg body weight): 11.8
- faecal Total VFA (dogs [9]; VM 1.0 mg/kg body weight): 73.5
- faecal pH (dogs [9]; VM 1.0 mg/kg body weight): 4.9
- faecal Consistency score (dogs [9]; VM 1.0 mg/kg): 3.8
- effect on L-lactic (dogs [9]; [10]): little effect
- effect on the pH, faecal consistency, dry matter content and VFA concentrations (dogs [9]; [10]): little effect
- effect on concentration of d-lactic acid (dogs [9]; all levels of inclusion): reduce the concentration of d-lactic acid
